Legend:
KRAS [1] = biological target: T1, KRAS (Homo sapiens, UniProt P01116); assay: B-RAP surface immunofluorescent assay, PCC ligand KRas EC50; format: binding; settings: for Avg F635, Full Centroid / Avg F635, Full Lane / avg F635, Left Part Centroid / avg F635, Middle Part Centroid / avg F635, Right Part Centroid: 10 μM KRas well of plate #1, pixel by pixel; for avg F635, Left Part Centroid: left part of centroid; for avg F635, Middle Part Centroid: middle part of centroid; for avg F635, Right Part Centroid: right part of centroid; for EC50: 13-point KRas concentration series, each point in decaplicate, Hill coefficient=1
T1 construct: His6-tagged human KRas Isoform 4B (residues 1-169); His6; made in house; host or cells: E. coli BL21(DE3), PQE80 vector
Experimental: The barcode patterned microchip surface was partitioned into 16 individual microwells using a pre-fabricated PDMS slab. Individual biotinylated PCC candidates were complexed to specific SAC-DNA conjugates, combined into a cocktail, and then self-assembled, via DNA hybridization, onto designated barcode stripes (FIGS. 2-4). Incubation with a specific concentration of the target protein preceded incubation with a primary capture antibody and then a fluorophore-conjugated secondary detection antibody. During assay execution, each well represents a different target concentration or assay condition. Once developed, the fluorescence of the barcodes is digitized using a GenePix 4400A array scanner, with an excitation laser power optimized to a power level of 40% (60 W), which maximizes detection sensitivity while also minimizing signal saturation. Data extraction occurs using 10 μm radius circles, taken along the length of a barcode stripe. A fluorescence signal representing the average of all the pixels within a given circle is collected. A total of ten circles (data-blocks) are measured along a 180 μm span of the middle portion for each individual barcode lane in a given well. 10 μM KRas protein gave an average F635 of 47,868.7, with a standard deviation of 4154.53. 1 μM KRas protein gave an average F635 of 11437.6, with a standard deviation of 1602.202. 100 nM KRas protein gave an average F635 of 1780.6, with a standard deviation of 236.38. This illustrates the intensity across a stripe compared to the intensity from the data-block extraction. After extraction the data is background corrected. The background signal arises from (a) non-specific binding of the primary and secondary antibodies (independent of [KRas]), but can vary across different barcode stripes), and (b) non-specific binding of KRas protein ([KRas] dependent). Background (a) was assessed by measuring the average signal in the null protein well for each stripe. Background (b) was assessed by measuring the average fluorescence for the dummy ligand (Biotin* probe) that was in each well. The background subtracted data was then graphed in Graphpad Prism 7 and fitted to a sigmoidal curve (Hill coefficient=1).
Measurement of PCC Ligand KRas EC50 with the Barcode Rapid Assay Platform
Protein Incubation Buffer: Tris-buffered saline (TBS)+0.05% Tween20 (TBST)
A pre-fabricated PDMS template was aligned onto the DNA barcode microchip, and the microchip was taped into a 10 cm petri dish. The wells on the platform were wet with 50 μL PBST before filling with blocking buffer and placing into a 37° C. incubator for 1 hr. Concurrently, 40 μL 1% BSA in PBS solutions containing 750 nM of a SAC-DNA conjugate and 3.75 μM of one biotinylated PCC ligand or biotin-A20-Cy3 blank were prepared for each SAC-DNA conjugate. The biotinylated ligands were allowed to complex with the SAC protein for one hour before pooling the SAC-DNA-ligand solutions (final [SAC-DNA-ligand conjugates]=50 nM). The blocking buffer was aspirated and each well was loaded with the SAC-DNA-ligand conjugates cocktail for hybridization with the DNA barcode at 37° C. for one hour. The wells were washed with PBST (3×) before loading serially diluted solutions of KRas protein in protein buffer (0 to 400 μM). After shaking at RT for one hour, the wells were rinsed with PBST (5×), making sure to pipet up/down with the first addition of PB ST. A (100:1) dilution of CST rabbit anti-Ras Ab (#39655) in 1° ab buffer was added to each well before shaking at RT for one hour. After rinsing the wells with PBST (3×), the wells were loaded with a (200:1) dilution of Abcam goat anti-rabbit-Alexafluor 647 linked ab (ab150079) in 2° ab buffer before shaking at RT for one hour. A final rinse of the wells with PBST (3×) proceeded peeling off the PDMS slab from the barcode microchip and dipping the barcode into the following solutions: PBS, (1:1) PBS: MQ H2O, MQ H2O (2×). […]

KRAS [2] = biological target: T1, KRAS; assay: Barcoded rapid assay microchip binding curves of FIG. 6A/6B; settings: fitted curves of FIG. 6B, Hill coefficient set to 1, triplicate
Experimental: FIG. 6A is a picture of a barcoded rapid assay microchip (60) following its use for binding curve assays of KRAS to candidate ligands. […] EC50 binding curves of 15 candidate ligands were simultaneously generated against the target protein KRAS. Each microwell (ovals) represents a distinct concentration of KRAS that was added (values are given above each well). All 15 candidate ligands were measured in triplicate in each microwell.
FIG. 6B is a graph of the EC50 binding curves generated from the barcoded rapid assay microchip of FIG. 6A. Images of the barcoded rapid assay microchip were digitized using a fluorescence image scanner and plotted as binding curves (61) for each of the candidate ligands. All binding curves were fitted to Hill functions, with the Hill coefficient set to 1.
A series of peptide ligands that were identified as candidate binders to the protein KRas, using known literature methods, were prepared according to the methods of FIG. 3, and assembled into the individual microwells of the barcoded rapid assay microchip as illustrated in FIG. 4. […] Fluorescence imaging of the individual wells was then used to generate a fluorescence intensity, vs KRAS concentration, for each of the individual candidate ligands. […]

KRAS [3] = biological target: T1, KRAS; assay: Multi-well ELISA, PCC ligand KRas EC50; format: binding; settings: triplicate, KRas 0→300 μM, Hill coefficient=1
Experimental: Measurement of PCC Ligand KRas EC50 Using the Multi-Well ELISA Technology
A 96-well Pierce Neutravidin Plate was washed with binding buffer (3×5 minutes at RT) before loading plate with a 1 μM solution of either blank (biotin-PEG5-NHAc) (singly) or biotinylated PCC ligand (in triplicate). The plate incubated for two hours before washing with binding buffer (3×5 minutes). Blocking buffer was added to each well and the plate blocked for one hour before undergoing washing with binding buffer (3×5 minutes). Each well was loaded with either binding buffer or KRas solution (0→300 μM), and the plate was incubated for 30 minutes. Plate washing with binding buffer (3×5 minutes) preceded incubating the plate with a (1000:1) dilution of 1° antibody (ab) rabbit anti-Ras (CST #3965) in ab buffer for thirty minutes. The plate was washed with binding buffer (3×5 minutes), loaded with a (2000:1) dilution of 2° ab goat anti-rabbit, HRP-linked ab (CST #7074) in ab buffer, and incubated for an additional thirty minutes. […] After quenching the enzymatic reaction with 1M H2SO4(aq) (100 μL) the plate was read at λ=450 nm within ten minutes. The data was double background corrected using the ab only absorbance and the dummy ligand absorbance, plotted using Prism GraphPad 7 (Sigmoidal 4PL mode with the Hill coefficient set=1), and an EC50 value was calculated.

T1 sequence (P01116 1-169 isoform P01116-2): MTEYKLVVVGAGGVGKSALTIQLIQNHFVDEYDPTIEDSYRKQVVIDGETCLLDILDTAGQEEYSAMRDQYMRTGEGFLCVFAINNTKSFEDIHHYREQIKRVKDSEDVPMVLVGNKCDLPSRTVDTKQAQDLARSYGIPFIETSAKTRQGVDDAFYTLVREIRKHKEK

Row | Compound | Avg F635, Full Centroid (KRAS [1]) | Avg F635, Full Lane (KRAS [1]) | avg F635, Left Part Centroid (KRAS [1]) | avg F635, Middle Part Centroid (KRAS [1]) | avg F635, Right Part Centroid (KRAS [1]) | EC50 (KRAS [1]) | EC50 (KRAS [2]) | EC50 (KRAS [3])
1 | NC(=O)CC[C@@H]1NC(=O)[C@@H](N)Cc2cn(nn2)CCCC[C@@H](C(=O)NCCOCCOCCOCCOCCOCCC(=O)NCCNC(=O)CCCC[C@@H]2SC[C@@H]3NC(=O)N[C@@H]32)NC(=O)[C@H](Cc2ccc(O)cc2)NC(=O)[C@H](Cc2ccccc2)NC(=O)[C@H](CC(N)=O)NC(=O)[C@H](CC(=O)O)NC1=O (single isomer, unassigned) [Ligand L9a, QDNFY] | 18391 | 16612 | 14966 | 20262 | 20045 | 5.43 ± 1 µM | 6.55 µM | 2.18 ± 2.7 µM
2 | NC(=O)CC[C@@H]1NC(=O)[C@@H](N)Cc2cn(nn2)CCCC[C@@H](C(=O)NCCOCCOCCOCCOCCOCCC(=O)NCCNC(=O)CCCC[C@@H]2SC[C@@H]3NC(=O)N[C@@H]32)NC(=O)[C@H](Cc2ccc(O)cc2)NC(=O)[C@H](Cc2ccccc2)NC(=O)[C@H](CC(N)=O)NC(=O)[C@H](CC(=O)O)NC1=O (single isomer, unassigned) [Ligand L9b, QDNFY] | 45500 | 41812 | 39380 | 47791 | 49508 | 3.86 ± 0.57 µM | 6.29 µM | 3 ± 4.9 µM

Source: patent publication US20180284123A1, “BARCODED RAPID ASSAY PLATFORM USEFUL FOR EFFICIENT ANALYSIS OF CANDIDATE MOLECULES AND METHODS OF MAKING AND USING THE PLATFORM” (California Institute of Technology, priority 2017, published 2018)
